In ChEMBL document CHEMBL1201862, “PubChem BioAssay data set” (2004):
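How tested: cells in 96-well plates exposed to compound for 48 hours at five concentrations. Abbreviation: GI50, concentration required for 50% inhibition of growth.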 The source made the active and inactive calls. Rule as the data show it: active = GI50 up to about 1.1 µM and inactive = higher.

Tests used:
Test in all cases: DTP human tumour cell line panel, 48 h
NCI-H23 = system: NCI-H23
SNB-75 = system: SNB-75
HCT-116 = system: HCT-116
MDA-MB-435 = system: MDA-MB-435
TK-10 = system: TK-10
CCRF-CEM = system: CCRF-CEM
SK-MEL-5 = system: SK-MEL-5
HL-60 = system: HL-60
NCI/ADR-RES = system: NCI/ADR-RES
PC-3 = system: PC-3
BT-549 = system: BT-549
DU-145 = system: DU-145
MDA-MB-231 = system: MDA-MB-231
EKVX = system: EKVX
SF-539 = system: SF-539
K562 = system: K562
ACHN = system: ACHN
CAKI-1 = system: CAKI-1
M14 = system: M14
COLO 205 = system: COLO 205
SW-620 = system: SW-620
UACC-62 = system: UACC-62
A498 = system: A498
SNB-19 = system: SNB-19
SK-MEL-2 = system: SK-MEL-2
LOX IMVI = system: LOX IMVI
OVCAR-3 = system: OVCAR-3
HOP-92 = system: HOP-92
IGROV-1 = system: IGROV-1
UACC-257 = system: UACC-257
OVCAR-8 = system: OVCAR-8
OVCAR-5 = system: OVCAR-5
MOLT-4 = system: MOLT-4
SK-MEL-28 = system: SK-MEL-28
UO-31 = system: UO-31
KM12 = system: KM12
HT-29 = system: HT-29
Hs-578T = system: Hs-578T
SN12C = system: SN12C
SF-268 = system: SF-268
OVCAR-4 = system: OVCAR-4
SF-295 = system: SF-295
SK-OV-3 = system: SK-OV-3
RXF 393 = system: RXF 393
HCT-15 = system: HCT-15
U-251 = system: U-251
Malme-3M = system: Malme-3M
786-0 = system: 786-0
HOP-62 = system: HOP-62
RPMI-8226 = system: RPMI-8226
HCC 2998 = system: HCC 2998
NCI-H226 = system: NCI-H226
A549 = system: A549
NCI-H460 = system: NCI-H460
T47D = system: T47D
SR = system: SR
NCI-H522 = system: NCI-H522
MCF7 = system: MCF7

## O=C(OCc1ccccc1)c1nc2ccccc2n1S(=O)(=O)c1ccccc1
NCI-H23
  GI50: > 100 µM (inactive)
SNB-75
  GI50: > 100 µM (inactive)
HCT-116
  GI50: > 100 µM (inactive)
MDA-MB-435
  GI50: > 100 µM (inactive)
TK-10
  GI50: > 100 µM (inactive)
CCRF-CEM
  GI50: > 100 µM (inactive)
SK-MEL-5
  GI50: 80.4 µM (inactive)
HL-60
  GI50: > 100 µM (inactive)
NCI/ADR-RES
  GI50: > 100 µM (inactive)
PC-3
  GI50: > 100 µM (inactive)
BT-549
  GI50: > 100 µM (inactive)
DU-145
  GI50: > 100 µM (inactive)
MDA-MB-231
  GI50: > 100 µM (inactive)
EKVX
  GI50: > 100 µM (inactive)
SF-539
  GI50: > 100 µM (inactive)
K562
  GI50: > 100 µM (inactive)
ACHN
  GI50: > 100 µM (inactive)
CAKI-1
  GI50: > 100 µM (inactive)
M14
  GI50: > 100 µM (inactive)
COLO 205
  GI50: 88.7 µM (inactive)
SW-620
  GI50: > 100 µM (inactive)
UACC-62
  GI50: > 100 µM (inactive)
A498
  GI50: > 100 µM (inactive)
SNB-19
  GI50: > 100 µM (inactive)
SK-MEL-2
  GI50: > 100 µM (inactive)
LOX IMVI
  GI50: > 100 µM (inactive)
OVCAR-3
  GI50: > 100 µM (inactive)
HOP-92
  GI50: > 100 µM (inactive)
IGROV-1
  GI50: > 100 µM (inactive)
UACC-257
  GI50: > 100 µM (inactive)
OVCAR-8
  GI50: > 100 µM (inactive)
OVCAR-5
  GI50: > 100 µM (inactive)
MOLT-4
  GI50: > 100 µM (inactive)
SK-MEL-28
  GI50: > 100 µM (inactive)
UO-31
  GI50: > 100 µM (inactive)
KM12
  GI50: > 100 µM (inactive)
HT-29
  GI50: > 100 µM (inactive)
Hs-578T
  GI50: > 100 µM (inactive)
SN12C
  GI50: > 100 µM (inactive)
SF-268
  GI50: > 100 µM (inactive)
OVCAR-4
  GI50: > 100 µM (inactive)
SF-295
  GI50: > 100 µM (inactive)
SK-OV-3
  GI50: > 100 µM (inactive)
RXF 393
  GI50: > 100 µM (inactive)
HCT-15
  GI50: > 100 µM
U-251
  GI50: > 100 µM (inactive)
Malme-3M
  GI50: 88.9 µM (inactive)
786-0
  GI50: > 100 µM (inactive)
HOP-62
  GI50: > 100 µM (inactive)
RPMI-8226
  GI50: > 100 µM (inactive)
HCC 2998
  GI50: > 100 µM (inactive)
NCI-H226
  GI50: > 100 µM (inactive)
A549
  GI50: > 100 µM (inactive)
NCI-H460
  GI50: > 100 µM (inactive)
T47D
  GI50: 59.2 µM (inactive)

## O=C1[C@@H]2[C@@H](c3ccccc3)[C@]2(Cl)C(=O)[C@H]2[C@H](c3ccccc3)[C@@]12Cl
NCI-H23
  GI50: > 100 µM (inactive)
SNB-75
  GI50: > 100 µM (inactive)
HCT-116
  GI50: > 100 µM (inactive)
MDA-MB-435
  GI50: > 100 µM (inactive)
TK-10
  GI50: > 100 µM (inactive)
CCRF-CEM
  GI50: > 100 µM (inactive)
SK-MEL-5
  GI50: > 100 µM (inactive)
HL-60
  GI50: > 100 µM (inactive)
NCI/ADR-RES
  GI50: > 100 µM (inactive)
PC-3
  GI50: > 100 µM (inactive)
BT-549
  GI50: 45.8 µM (inactive)
DU-145
  GI50: > 100 µM (inactive)
MDA-MB-231
  GI50: > 100 µM (inactive)
EKVX
  GI50: > 100 µM (inactive)
SF-539
  GI50: > 100 µM (inactive)
K562
  GI50: > 100 µM (inactive)
ACHN
  GI50: > 100 µM (inactive)
CAKI-1
  GI50: > 100 µM (inactive)
M14
  GI50: > 100 µM (inactive)
COLO 205
  GI50: > 100 µM (inactive)
SW-620
  GI50: > 100 µM (inactive)
UACC-62
  GI50: > 100 µM (inactive)
A498
  GI50: > 100 µM (inactive)
SNB-19
  GI50: > 100 µM (inactive)
SK-MEL-2
  GI50: > 100 µM (inactive)
SR
  GI50: 0.189 µM (active)
LOX IMVI
  GI50: > 100 µM (inactive)
OVCAR-3
  GI50: > 100 µM (inactive)
HOP-92
  GI50: > 100 µM (inactive)
IGROV-1
  GI50: > 100 µM (inactive)
UACC-257
  GI50: > 100 µM (inactive)
OVCAR-8
  GI50: > 100 µM (inactive)
OVCAR-5
  GI50: > 100 µM (inactive)
MOLT-4
  GI50: > 100 µM (inactive)
SK-MEL-28
  GI50: > 100 µM (inactive)
NCI-H522
  GI50: > 100 µM (inactive)
UO-31
  GI50: 57 µM (inactive)
KM12
  GI50: > 100 µM (inactive)
HT-29
  GI50: > 100 µM (inactive)
Hs-578T
  GI50: > 100 µM (inactive)
SN12C
  GI50: > 100 µM (inactive)
SF-268
  GI50: > 100 µM (inactive)
OVCAR-4
  GI50: > 100 µM (inactive)
SF-295
  GI50: > 100 µM (inactive)
SK-OV-3
  GI50: > 100 µM (inactive)
RXF 393
  GI50: > 100 µM (inactive)
HCT-15
  GI50: > 100 µM
U-251
  GI50: > 100 µM (inactive)
Malme-3M
  GI50: > 100 µM (inactive)
786-0
  GI50: > 100 µM (inactive)
HOP-62
  GI50: > 100 µM (inactive)
HCC 2998
  GI50: > 100 µM (inactive)
MCF7
  GI50: > 100 µM (inactive)
NCI-H226
  GI50: > 100 µM (inactive)
A549
  GI50: > 100 µM (inactive)
NCI-H460
  GI50: > 100 µM (inactive)
T47D
  GI50: > 100 µM (inactive)
